Source: article PMC13489962, “Small-molecule modulation of β-arrestins” (Nature, 2026)
“Also recorded” adds a separate entry of the source.

Experiments:
βARR1–ERK2 interaction = target: T1, βARR1–ERK2 interaction (Rattus norvegicus, UniProt P29066); assay: Flag pulldown of βARR1 with ERK2; assay type: biochemical; details: 20-fold molar excess of compound, 30 min
T1 construct: βARR1 or βARR2 construct, with their C terminus truncated (at amino acid 393 or 394, respectively); GST (pGEX4T1) (N, cleaved yes); made in house
Experimental: To assess the effects of the compounds on βARR1 interactions with its effector proteins SRC and JNK3, βARR1–Flag (5 μM) was incubated with a 20-fold molar excess of Cmpd-5, Cmpd-46 or Cmpd-64 for 30 min at room temperature. Subsequently, 15 μM of SRC or JNK3 was added. To evaluate compound effects on βARR1–ERK2 binding, βARR1 (15 μM) was pre-incubated with a 20-fold molar excess of Cmpd-5, Cmpd-46 or Cmpd-64 for 30 min at room temperature, followed by the addition of 5 μM ERK2–Flag. Afterward, 50 μl of anti-Flag M2 affinity gel (Millipore Sigma) was added, and the mixtures were incubated for 1 h at room temperature with rotation. The resin was then collected by centrifugation and washed 3 times with 1 ml of 20 mM HEPES (pH 7.5), 100 mM NaCl. Bound proteins were eluted using 0.2 mg ml^−1 Flag peptide in 20 mM HEPES (pH 7.5), 100 mM NaCl, mixed with Laemmli sample buffer (Bio-Rad), and analysed by SDS–PAGE followed by western blotting. Detection was performed using monoclonal anti-Flag M2-peroxidase (HRP) antibody (1:2,000, Sigma-Aldrich A8592, RRID:AB_439702) for βARR1–Flag and ERK2–Flag; polyclonal A1CT antibody[76] (1:5,000) for βARR1; anti-SRC monoclonal antibody (1:10,000, EMD Millipore 05-184, RRID:AB_2302631) for SRC; and anti-JNK3 monoclonal antibody (1:5,000, Cell Signaling 2305, RRID:AB_2281744) for JNK3. Western blot images were taken using Bio-Rad ChemiDoc system and the densitometry analysis was performed by ImageLab v6.1 and statistical differences were determined by one-way ANOVA with Dunnett’s post hoc test in GraphPad Prism software.

[1] = system: adult ventricular cardiomyocytes (AT1R); assay: Adult ventricular cardiomyocyte contractility; assay type: cell-based, mouse; details: 25 μM, 20 min; TRV027 10 μM; paced at 1 Hz
Experimental: All animal experiments were approved by the Institutional Animal Care and Use Committee (IACUC) at Duke University Medical Center and performed in accordance with relevant guidelines and regulations. Ventricular cardiomyocytes were freshly isolated from 12- to 16-week-old C57BL/6J wild-type mice using a standard Langendorff perfusion system[39],[74]. The heart was initially cannulated through the aorta and then perfused with an oxygenated buffer at 37 °C (120 mM NaCl, 14.8 mM KCl, 0.6 mM KH2PO4, 0.6 mM Na2HPO4, 1.2 mM MgSO4·7H20, 10 mM HEPES, 4.6 mM NaHCO3, 30 mM taurine, and 5.6 mM glucose, pH 7.3). After 2 min, the buffer was switched to a digestion solution containing 2.4 mg ml^−1 collagenase (Worthington). Following 8 min of digestion, ventricles were transferred to a stopping buffer that included 10% calf serum. Myocytes were then manually dissociated and gradually brought to a physiological Ca^2+ concentration (1.2 mM). Isolated cardiomyocyte was first pretreated with DMSO (0.1%), C5, C46 or C64 (25 µM) for 20 min followed by treatment with HBSS (basal), angiotensin II (positive control, 10 µM) or TRV027 (10 µM). Cells were plated in a chamber (Ionoptix) on a Nikon Eclipse TE300 inverted microscope (40× 0.9 NA objective, MRF00400, Nikon). Cardiomyocytes were paced at 1 Hz and 20 V (MyoPacer, Ionoptix), and sarcomere length was recorded by a MyoCam-S camera (Ionoptix). Ten consecutive contractions per cell (7–12 cells per condition) were averaged to quantify contractility and kinetic parameters (IonWizard 7.2). […] Sample size represents the number of hearts at each condition derived from an average of 7–12 cells per heart for each condition. Statistical comparisons between conditions were performed using one-way ANOVA followed by Sidak post hoc test.

T1 sequence (P29066 1-393): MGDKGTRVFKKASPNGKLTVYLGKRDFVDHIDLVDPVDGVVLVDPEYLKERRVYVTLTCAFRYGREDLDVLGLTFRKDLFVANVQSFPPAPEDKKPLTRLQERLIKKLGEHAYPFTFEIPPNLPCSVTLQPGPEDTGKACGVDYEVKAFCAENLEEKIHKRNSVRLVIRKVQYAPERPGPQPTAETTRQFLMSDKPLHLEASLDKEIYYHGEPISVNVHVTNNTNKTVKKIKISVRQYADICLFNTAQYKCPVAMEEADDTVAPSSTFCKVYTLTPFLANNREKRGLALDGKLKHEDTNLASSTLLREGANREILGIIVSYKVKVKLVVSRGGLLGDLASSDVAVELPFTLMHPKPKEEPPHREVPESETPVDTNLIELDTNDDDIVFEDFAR

SMILES	effect on βARR1 binding to ERK2 (βARR1–ERK2 interaction)	effect on TRV027-enhanced sarcomere shortening, contraction and relaxation velocity [1]
C=C1C(=O)[C@]23[C@H](O)[C@H]1CC[C@H]2[C@@]12CO[C@]3(O)[C@@H](O)[C@@H]1C(C)(C)CC[C@@H]2O [Cmpd-5, (1S,4aR,5S,6S,6aR,9S,11aS,11bS,14R)-1,5,6,14-tetrahydroxy−4,4-dimethyl-8-methylenedecahydro-1H-6,11b-(epoxymethano)-6a,9-methanocyclohepta[a]naphthalen-7(8H)-one]	reduced; also recorded: significantly inhibited	significantly inhibited
C=C1C(=O)C2=CC1CCC(=O)C1(C)CCC(OCC)C(C)(C)C1CC2O (stereo not drawn) [Cmpd-46, (Z)-3-ethoxy-6-hydroxy-4,4,13a-trimethyl-9-methylene-1,2,3,4,4a,5,6,9,10,11,12,13a-dodecahydro-7,10-(metheno)benzo[11]annulene-8,13-dione]	reduced	significantly inhibited
C=C1C(=O)OC2CC3(C)OC3CCC(C)=CC(OC(C)=O)C12 (stereo not drawn) [Cmpd-64, (Z)-4,10a-dimethyl-7-methylene-8-oxo-1a,2,3,6,6a,7,8,9a,10,10a decahydrooxireno[2’,3’:8,9]cyclodeca[1,2-b]furan-6-yl acetate]	reduced	significantly inhibited
